What was measured:
[1] = tested on: tissue catabolism/atrophy/cachexia that is induced by LPS; assay: LPS-induced catabolism, pair fed animals, multiple treatments (Example 6); assay type: in vivo
Method: FIG. 5A depicts the difference in bodyweight following Lipopolysaccharide administration with multiple treatments with control or ketone supplementation with calories controlled across groups.
FIG. 5B depicts the difference in percent bodyweight following Lipopolysaccharide administration with multiple treatments with control or ketone supplementation with calories controlled across groups.
FIG. 5A-B depicts weight matched animals who were administered 10 mg/kg LPS intraperitoneally. After intraperitoneal LPS injection, 4 mL/kg of water (n=4) or R/S 1,3 Butanediol Acetoacetate Diester (Ketone Diester; n=4) were intragastrically gavaged into animals. Animals were pair fed to ensure calories were equivalent between groups to remove influence of caloric intake on tissue catabolism/atrophy/cachexia. […] This effect was retained for a minimum of 2 days following catabolic/atrophy/cachexia stimulus (10 mg/kg LPS intraperitoneal). The ability of Ketone Diester to attenuate catabolism was independent of caloric intake/anorexia induced by LPS.

[2] = tested on: cancer induced tissue wasting (muscle and fat), VM-M3 model of metastatic cancer; assay: VM-M3 model of metastatic cancer: muscle mass as ratio of total calories consumed (Example 2); assay type: in vivo, VM/Dk animals; settings: with standard diet, vs standard diet or ketogenic diet; 21 days post-cancer implantation; FIG. 1
Text: FIG. 1 depicts ratios of muscle mass to amount of calories consumed within a cancer cachexia VM-M3 modeling system, specifically with subjects having been fed standard diet, ketogenic diet, and ketone diester.
Taking a model system of cancer induced tissue wasting (muscle and fat), R,S 1,3 butanediol diacetoacetate+standard diet, ketogenic diet, and standard diet were applied. VM/Dk animals were matched for sex, age, and bodyweight to ensure controlled groups. Animals were implanted with VM-M3 cell in the left flank to create the VM-M3 model of metastatic cancer. Once implanted, primary tumor forms at site of implantation, and then cells metastasize to all major organ systems that results in tissue wasting. Animals were harvested at 21 days post-cancer implantation to evaluate tissue wasting. […] This confirms that R,S 1,3 butanediol diacetoacetate is an anti-catabolic/anti-tissue wasting compound.

[3] = tested on: anorexia induced by catabolic/atrophy/cachexic stimulus (LPS); assay: LPS-induced anorexia, food intake (Example 5); assay type: in vivo; settings: 10 mg/kg LPS i.p.; one-time dose 4 mL/kg intragastric gavage vs water; FIG. 4A-B
Method: FIG. 4A depicts the difference in anorexia symptoms following Lipopolysaccharide administration with treatment with control or ketone supplementation.
FIG. 4B depicts the difference in caloric intake following Lipopolysaccharide administration with treatment with control or ketone supplementation.
FIG. 4A-B depicts weight matched animals who were administered 10 mg/kg LPS intraperitoneally. After intraperitoneal LPS injection, 4 mL/kg of water (n=4) or R/S 1,3 Butanediol Acetoacetate Diester (Ketone Diester; n=5) were intragastrically gavaged into animals. Food Intake was tracted to determine if a one-time does of Ketone Diester was able to reduce anorexia experiences post catabolic/atrophy/cachexic stimulus (10 mg/kg LPS intraperitoneally).

[4] = tested on: tissue catabolism/atrophy/cachexia that is induced by LPS; assay: LPS-induced catabolism, single gavage, bodyweight tracked for 2 weeks (Example 4); assay type: in vivo, VM/Dk mice
Text: FIG. 3A depicts acute percent bodyweight changes that accompany Lipopolysaccharide after treatment with control or ketone supplementation in VM/Dk mice.
FIG. 3B depicts acute bodyweight changes that accompany Lipopolysaccharide after treatment with control or ketone supplementation in VM/Dk mice.
FIG. 3C depicts chronic percent bodyweight changes that accompany Lipopolysaccharide after treatment with control or ketone supplementation in VM/Dk mice.
FIG. 3D depicts the difference in bodyweight with control treatment at baseline versus each day following Lipopolysaccharide treatment.
FIG. 3E depicts the difference in bodyweight with ketone supplement treatment at baseline versus each day following Lipopolysaccharide treatment.
FIGS. 3A-E depict results from Weight matched animals who were administered 10 mg/kg LPS intraperitoneally. After intraperitoneal LPS injection, 4 mL/kg of water (n=4) or R/S 1,3 Butanediol Acetoacetate Diester (Ketone Diester; n=5) were intragastrically gavaged into animals one time. Bodyweight and food intake were tracked for 2 weeks post LPS administration. […] FIG. 3D-E depicts animals administered water gavage post LPS were not able to recovery to baseline bodyweight levels until 11 days post LPS administration.

cancer cachexia (VM-M3) = assay: Cancer cachexia (VM-M3), skeletal muscle weight as ratio to baseline bodyweight (Example 7); assay type: in vivo; settings: ketone diester in standard diet food at 30% by weight; 21 days post cancer injection; vs cancer on standard diet; FIG. 6A-B
Text: FIG. 6A depicts the difference in skeletal muscle weight following cancer cachexia administration (VM-M3) with control or ketone supplementation.
FIG. 6B depicts the difference in skeletal muscle weight following cancer cachexia administration (VM-M3) with control or ketone supplementation.
FIG. 6A-B depict weight matched animals who were split into 3 groups 1) Animals without cancer injected with vehicle on standard diet (Sham; n=11), 2) animals with cancer on standard diet (n=11), and 3) animals with cancer with ketone diester incorporated into the standard diet food at 30% by weight (n=11). Animals bodyweight was measured at baseline. Cancer groups were assessed in a validated model of cancer cachexia. At 21 days post vehicle or cancer injection, tissue were harvest and weighed. Skeletal Muscle weight was set as a ratio to baseline bodyweight to determine the differences in skeletal muscle tissue as compared to set pre-cancer timepoint.

`CC(=O)CC(=O)OCCC(C)OC(=O)CC(C)=O` (stereo not shown) [Ketone Diester, R/S 1,3 Butanediol Acetoacetate Diester] was tested, and the “tissue catabolism/atrophy/cachexia (bodyweight) induced by LPS, calories controlled” value ([1]; 10 mg/kg LPS i.p., 4 mL/kg gavage, multiple administrations, FIG. 5A-B) was “significantly attenuated tissue catabolism/atrophy/cachexia”, the “duration for which the anti-catabolic effect was retained” value ([1]; following 10 mg/kg LPS intraperitoneal) was no less than 2 days and the “percentage of muscle mass as a ratio of total calories consumed (Quad/Carcass/Absolute calories consumed)” value [2] was “substantially higher percentage of muscle mass compared to the amount of calories consumed”. The “anorexia (food intake, caloric intake) following LPS” value [3] was “significantly reduced the anorexia”, the “bodyweight versus baseline on each day following LPS” value ([4]; 10 mg/kg LPS i.p., 4 mL/kg gavage, FIG. 3E (water control recovered only at 11 days)) was “did not significantly reduced in bodyweight” and the “attenuation of tissue catabolism/atrophy/cachexia induced by LPS” value ([4]; 10 mg/kg LPS i.p., 4 mL/kg intragastric gavage one time, within 1st 24 hour post LPS, FIG. 3A) was 46%. The “attenuation of percentage of tissue catabolism/atrophy/cachexia induced by LPS” value ([4]; 10 mg/kg LPS i.p., 4 mL/kg intragastric gavage one time, within 1st 24 hours post LPS, FIG. 3B) was 48%, the “chronic tissue catabolism (percent bodyweight change) compared to control” value ([4]; multi-weeks post-LPS administration, FIG. 3C) was “significantly attenuated tissue catabolism compared to control” and the “Gastrocnemius catabolism/atrophy/cachexia (muscle weight / baseline bodyweight)” value (cancer cachexia (VM-M3)) was “significantly attenuated”. For the same compound, the “Quadricep catabolism/atrophy/cachexia (muscle weight / baseline bodyweight)” value (cancer cachexia (VM-M3)) was “significantly attenuated”.
